Test results as given in the NIST ThermoML archive (doi:10.1021/je060271a).

Conditions: Liquid, Vibrating tube method

CCCCCCCC(=O)OCC(COC(=O)CCCCCCC)(COC(=O)CCCCCCC)COC(=O)CCCCCCC [pentaerythritol tetraoctanoate]
Conditions | mass density [kg/m3]
283.15 K, 29618 kPa | 986.1
283.15 K, 29659 kPa | 986
283.15 K, 29698 kPa | 986.2
283.15 K, 29736 kPa | 986.1
283.15 K, 29782 kPa | 986.2
283.15 K, 29821 kPa | 986.2
283.15 K, 29859 kPa | 986.3
283.15 K, 29906 kPa | 986.3
283.15 K, 29946 kPa | 986.3
283.15 K, 29992 kPa | 986.4
283.15 K, 30032 kPa | 986.4
283.15 K, 30071 kPa | 986.3
283.15 K, 30118 kPa | 986.4
283.15 K, 30158 kPa | 986.4
283.15 K, 30201 kPa | 986.4
283.15 K, 30242 kPa | 986.5
283.15 K, 30289 kPa | 986.4
283.15 K, 30330 kPa | 986.5
283.15 K, 30370 kPa | 986.4
283.15 K, 30418 kPa | 986.5
283.15 K, 30459 kPa | 986.5
283.15 K, 30500 kPa | 986.6
283.15 K, 30549 kPa | 986.6
283.15 K, 30590 kPa | 986.6
283.15 K, 30631 kPa | 986.6
283.15 K, 30673 kPa | 986.6
283.15 K, 30724 kPa | 986.6
283.15 K, 30766 kPa | 986.7
283.15 K, 30808 kPa | 986.8
283.15 K, 30850 kPa | 986.6
283.15 K, 30900 kPa | 986.7
283.15 K, 30942 kPa | 986.8
283.15 K, 30985 kPa | 986.9
283.15 K, 31036 kPa | 986.8
283.15 K, 31079 kPa | 986.8
283.15 K, 31123 kPa | 986.8
283.15 K, 31174 kPa | 986.8
283.15 K, 31217 kPa | 986.9
283.15 K, 31260 kPa | 986.9
283.15 K, 31312 kPa | 987
283.15 K, 31356 kPa | 987.1
283.15 K, 31399 kPa | 987
283.15 K, 31451 kPa | 987.1
283.15 K, 31495 kPa | 987.1
283.15 K, 31539 kPa | 987
283.15 K, 31584 kPa | 987
283.15 K, 31637 kPa | 987.1
283.15 K, 31682 kPa | 987.2
283.15 K, 31727 kPa | 987.1
283.15 K, 31781 kPa | 987.2
283.15 K, 31826 kPa | 987.2
283.15 K, 31872 kPa | 987.1
283.15 K, 31928 kPa | 987.2
283.15 K, 31976 kPa | 987.3
283.15 K, 32024 kPa | 987.3
283.15 K, 32078 kPa | 987.3
283.15 K, 32117 kPa | 987.3
283.15 K, 32155 kPa | 987.4
283.15 K, 32186 kPa | 987.4
283.15 K, 32232 kPa | 987.5
283.15 K, 32279 kPa | 987.3
283.15 K, 32317 kPa | 987.5
283.15 K, 32364 kPa | 987.6
283.15 K, 32402 kPa | 987.5
283.15 K, 32442 kPa | 987.6
283.15 K, 32488 kPa | 987.5
283.15 K, 32528 kPa | 987.5
283.15 K, 32567 kPa | 987.6
283.15 K, 32614 kPa | 987.6
283.15 K, 32653 kPa | 987.6
283.15 K, 32700 kPa | 987.7
283.15 K, 32740 kPa | 987.6
283.15 K, 32779 kPa | 987.7
283.15 K, 32819 kPa | 987.7
283.15 K, 32868 kPa | 987.8
283.15 K, 32908 kPa | 987.7
283.15 K, 32947 kPa | 987.7
283.15 K, 32996 kPa | 987.9
283.15 K, 33037 kPa | 987.8
283.15 K, 33127 kPa | 987.8
283.15 K, 33168 kPa | 987.9
283.15 K, 33209 kPa | 987.9
283.15 K, 33260 kPa | 987.8
283.15 K, 33301 kPa | 987.9
283.15 K, 33344 kPa | 988
283.15 K, 33396 kPa | 988
283.15 K, 33439 kPa | 988
283.15 K, 33492 kPa | 988.1
283.15 K, 33538 kPa | 988
283.15 K, 33585 kPa | 988.1
283.15 K, 33636 kPa | 988.2
283.15 K, 33684 kPa | 988.1
283.15 K, 33728 kPa | 988.1
283.15 K, 33754 kPa | 988.1
283.15 K, 33776 kPa | 988.2
283.15 K, 33797 kPa | 988.2
283.15 K, 33823 kPa | 988.2
283.15 K, 33845 kPa | 988.1
283.15 K, 33867 kPa | 988.2
283.15 K, 33889 kPa | 988.2
283.15 K, 33915 kPa | 988.4
283.15 K, 33937 kPa | 988.3
283.15 K, 33959 kPa | 988.3
283.15 K, 33986 kPa | 988.2
283.15 K, 34008 kPa | 988.3
283.15 K, 34126 kPa | 988.4
283.15 K, 34154 kPa | 988.4
283.15 K, 34177 kPa | 988.3
283.15 K, 34205 kPa | 988.4
283.15 K, 34229 kPa | 988.5
283.15 K, 34255 kPa | 988.4
283.15 K, 34282 kPa | 988.4
283.15 K, 34314 kPa | 988.4
283.15 K, 34342 kPa | 988.4
283.15 K, 34371 kPa | 988.6
283.15 K, 34402 kPa | 988.5
283.15 K, 34407 kPa | 988.5
283.15 K, 34408 kPa | 988.5
283.15 K, 34409 kPa | 988.5
283.15 K, 34410 kPa | 988.5
283.16 K, 5633.2 kPa | 973.4
283.16 K, 22751 kPa | 982.8
283.16 K, 22773 kPa | 982.7
283.16 K, 22795 kPa | 982.6
283.16 K, 33086 kPa | 987.8
283.16 K, 33707 kPa | 988.2
283.16 K, 34030 kPa | 988.3
283.16 K, 34053 kPa | 988.3
283.16 K, 34080 kPa | 988.4
283.16 K, 34103 kPa | 988.3
303.14 K, 3768.3 kPa | 957.8
303.14 K, 3783 kPa | 957.7
303.14 K, 3800.7 kPa | 957.8
303.14 K, 3818.7 kPa | 957.7
303.14 K, 3833.9 kPa | 957.8
303.14 K, 3852.1 kPa | 957.7
303.14 K, 3867.4 kPa | 957.7
303.14 K, 3885.9 kPa | 957.9
303.14 K, 3920.2 kPa | 957.8
303.14 K, 3936.3 kPa | 957.8
303.14 K, 3956 kPa | 957.8
303.14 K, 3973 kPa | 957.8
303.14 K, 3988.9 kPa | 958
303.14 K, 4008.8 kPa | 957.9
303.14 K, 4024.9 kPa | 957.8
303.14 K, 4044.7 kPa | 957.9
303.14 K, 4060.9 kPa | 958
303.14 K, 4081.2 kPa | 957.9
